The source of these data is patent US9539260B2, “Dihydro-benzo-oxazine and dihydro-pyrido-oxazine derivatives” (Novartis AG, priority 2012, dated 2017).

In one test the target is PI3K alpha (Homo sapiens (Human), UniProt P42336). Nature of the test: Enzymatic PI3K alpha isoform inhibition (lipid kinase activity, Kinase-Glo luminescence). It counts as biochemical. Conditions: Enzymatic assay. A digest of the protocol:
(§1)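 ATP-depletion format: 10 nM PI3K with 5 μg/mL phosphatidylinositol and 2 μM ATP, run to ~50% ATP consumption, then Kinase-Glo added and remaining ATP read by luminescence after 5 min. IC50 from 4-parameter logistic fit, typically over 8 concentrations 10–0.003 μM.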
(In general: Kinase-Glo reads ATP consumption through a luciferase reaction.)

The target in a further test is PI3K delta (Homo sapiens (Human), UniProt O00329). Nature of the test: Enzymatic PI3K delta isoform inhibition (lipid kinase activity, Kinase-Glo luminescence). The class given is biochemical. The settings on record: Enzymatic assay. In short, it runs like this: as §1
Chain of PI3K delta (O00329 other isoform, or with tags, fused parts or gaps linker GGGGGG): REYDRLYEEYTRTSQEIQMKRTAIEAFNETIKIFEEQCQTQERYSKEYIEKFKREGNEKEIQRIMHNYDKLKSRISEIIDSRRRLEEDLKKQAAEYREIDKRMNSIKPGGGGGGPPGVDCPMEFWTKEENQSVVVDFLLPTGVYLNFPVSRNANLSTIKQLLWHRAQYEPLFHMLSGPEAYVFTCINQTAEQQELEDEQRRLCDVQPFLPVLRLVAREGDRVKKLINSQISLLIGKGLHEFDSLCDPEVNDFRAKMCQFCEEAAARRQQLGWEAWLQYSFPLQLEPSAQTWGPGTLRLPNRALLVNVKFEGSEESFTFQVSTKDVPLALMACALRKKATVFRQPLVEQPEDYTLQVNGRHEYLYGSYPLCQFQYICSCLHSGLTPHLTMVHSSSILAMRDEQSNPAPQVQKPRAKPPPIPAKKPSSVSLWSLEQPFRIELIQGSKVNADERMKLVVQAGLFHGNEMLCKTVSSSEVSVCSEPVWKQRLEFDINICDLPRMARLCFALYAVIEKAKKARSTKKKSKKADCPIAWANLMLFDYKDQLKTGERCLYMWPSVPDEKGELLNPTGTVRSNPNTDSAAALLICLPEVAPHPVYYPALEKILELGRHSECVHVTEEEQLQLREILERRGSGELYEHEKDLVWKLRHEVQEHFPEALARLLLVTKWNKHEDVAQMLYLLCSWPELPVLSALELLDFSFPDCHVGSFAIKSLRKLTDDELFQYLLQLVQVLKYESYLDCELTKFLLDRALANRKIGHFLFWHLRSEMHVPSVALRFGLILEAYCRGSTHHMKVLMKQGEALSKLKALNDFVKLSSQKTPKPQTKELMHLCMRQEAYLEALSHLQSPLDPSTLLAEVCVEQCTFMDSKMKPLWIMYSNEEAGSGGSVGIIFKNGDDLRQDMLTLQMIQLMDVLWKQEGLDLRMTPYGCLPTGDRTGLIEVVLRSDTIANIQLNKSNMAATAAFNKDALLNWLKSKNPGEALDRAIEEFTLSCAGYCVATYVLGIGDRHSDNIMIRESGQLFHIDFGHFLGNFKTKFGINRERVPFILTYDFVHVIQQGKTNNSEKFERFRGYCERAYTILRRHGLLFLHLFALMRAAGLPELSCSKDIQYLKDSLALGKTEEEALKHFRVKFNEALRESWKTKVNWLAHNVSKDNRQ

Chain of PI3K alpha (P42336 other isoform, or with tags, fused parts or gaps): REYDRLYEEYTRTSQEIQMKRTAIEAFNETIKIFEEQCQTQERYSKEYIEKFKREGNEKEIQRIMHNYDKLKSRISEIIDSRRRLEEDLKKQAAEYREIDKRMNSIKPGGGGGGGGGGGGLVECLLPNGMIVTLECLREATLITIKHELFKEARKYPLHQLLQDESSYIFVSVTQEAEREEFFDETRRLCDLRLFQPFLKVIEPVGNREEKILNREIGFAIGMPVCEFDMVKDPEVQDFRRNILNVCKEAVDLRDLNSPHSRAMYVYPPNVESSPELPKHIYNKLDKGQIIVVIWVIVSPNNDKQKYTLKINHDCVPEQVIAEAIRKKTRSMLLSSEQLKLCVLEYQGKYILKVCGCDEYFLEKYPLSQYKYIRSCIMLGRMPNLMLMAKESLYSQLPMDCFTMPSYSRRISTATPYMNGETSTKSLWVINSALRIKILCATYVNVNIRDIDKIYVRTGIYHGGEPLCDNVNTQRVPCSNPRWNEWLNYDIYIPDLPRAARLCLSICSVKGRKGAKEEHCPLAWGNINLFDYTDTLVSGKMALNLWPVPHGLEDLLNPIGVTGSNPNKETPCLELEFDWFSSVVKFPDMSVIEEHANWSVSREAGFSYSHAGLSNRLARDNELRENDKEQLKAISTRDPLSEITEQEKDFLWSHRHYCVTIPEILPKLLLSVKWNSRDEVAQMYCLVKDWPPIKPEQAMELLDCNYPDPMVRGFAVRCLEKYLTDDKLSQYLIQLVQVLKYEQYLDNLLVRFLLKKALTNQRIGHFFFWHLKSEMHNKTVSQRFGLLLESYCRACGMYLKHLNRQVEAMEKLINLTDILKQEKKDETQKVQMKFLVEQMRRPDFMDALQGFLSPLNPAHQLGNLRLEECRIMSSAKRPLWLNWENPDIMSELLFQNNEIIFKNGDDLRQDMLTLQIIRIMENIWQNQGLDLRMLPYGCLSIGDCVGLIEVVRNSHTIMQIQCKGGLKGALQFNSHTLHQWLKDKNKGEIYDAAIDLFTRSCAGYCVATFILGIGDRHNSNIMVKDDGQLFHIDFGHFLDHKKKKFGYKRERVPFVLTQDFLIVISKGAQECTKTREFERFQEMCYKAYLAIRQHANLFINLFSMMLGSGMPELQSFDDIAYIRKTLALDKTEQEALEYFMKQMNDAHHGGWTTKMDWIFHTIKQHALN

What is called IC50 is the concentration that inhibits the measured activity by half. Lower therefore signals inhibition by little substance. On to `COc1ncc(N2CCOc3cnc(OC4CCN(C(=O)C5CCS(=O)(=O)CC5)C4)cc32)cc1C` (stereo not shown) [Example F12, (1,1-Dioxo-hexahydro-1lambda*6*-thiopyran-4-yl)-{3-[1-(6-methoxy-5-methyl-pyridin-3-yl)-2,3-dihydro-1H-pyrido[3,4-b][1,4]oxazin-7-yloxy]-pyrrolidin-1-yl}-methanone], for which the IC50 against PI3K alpha was 0.44 µM; at PI3K delta, under 0.003 µM.
The matching figures for `COc1ncc(N2CCOc3cnc(O[C@H]4CCN(C(=O)C5CCS(=O)(=O)CC5)C4)cc32)cc1C#N` [Example F13, 5-{7-[(S)-1-(1,1-Dioxo-hexahydro-1lambda*6*-thiopyran-4-carbonyl)-pyrrolidin-3-yloxy]-2,3-dihydro-pyrido[3,4-b][1,4]oxazin-1-yl}-2-methoxy-nicotinonitrile]: 0.704 µM and 0.024 µM.
Taken in the same sequence, the figures for `COc1ncc(N2CCOc3cnc(O[C@H]4CCN(C(=O)c5cn6ccsc6n5)C4)cc32)cc1C(F)(F)F` [Example G1, Imidazo[2,1-b]thiazol-6-yl-{(S)-3-[1-(6-methoxy-5-trifluoromethyl-pyridin-3-yl)-2,3-dihydro-1H-pyrido[3,4-b][1,4]oxazin-7-yloxy]-pyrrolidin-1-yl}-methanone] were 0.049 µM and 0.017 µM.
As for `COc1ncc(N2CCOc3cnc(O[C@@H]4CCN(C(=O)C5CCS(=O)(=O)CC5)C4)cc32)cc1C` [Example G2, (1,1-Dioxo-hexahydro-1lambda*6*-thiopyran-4-yl)-{(R)-3-[1-(6-methoxy-5-methyl-pyridin-3-yl)-2,3-dihydro-1H-pyrido[3,4-b][1,4]oxazin-7-yloxy]-pyrrolidin-1-yl}-methanone], the IC50 at PI3K alpha stood at 1.2 µM; against PI3K delta, 0.207 µM.
`COc1ncc(N2CCOc3cnc(O[C@H]4CCN(C(=O)c5ncn(C)c5N)C4)cc32)cc1C(F)(F)F` [Example G3, (5-Amino-1-methyl-1H-imidazol-4-yl)-{(S)-3-[1-(6-methoxy-5-trifluoromethyl-pyridin-3-yl)-2,3-dihydro-1H-pyrido[3,4-b][1,4]oxazin-7-yloxy]-pyrrolidin-1-yl}-methanone]: the figures for the IC50 at PI3K alpha and on PI3K delta were 0.372 µM and 0.056 µM, respectively.
With `Cc1cc(N2CCOc3ccc(O[C@H]4CCN(C(=O)C5CCS(=O)(=O)C5)C4)cc32)cnc1S(C)(=O)=O` (stereo partly shown) [Example H2], the IC50 was found to be 0.913 µM against PI3K alpha and 0.013 µM against PI3K delta.
As for `COc1ncc(N2CCOc3ccc(O[C@H]4CCN(C(=O)C5CCS(=O)(=O)CC5)C4)c(F)c32)cc1C` [Example I1, (1,1-Dioxo-hexahydro-1lambda*6*-thiopyran-4-yl)-{(S)-3-[5-fluoro-4-(6-methoxy-5-methyl-pyridin-3-yl)-3,4-dihydro-2H-benzo[1,4]oxazin-6-yloxy]-pyrrolidin-1-yl}-methanone], the IC50 amounted to 0.842 µM at PI3K alpha and 0.018 µM against PI3K delta.
As for `COc1ncc(N2CCOc3ccc(O[C@H]4CCN(C(=O)C5CCS(=O)(=O)CC5)C4)c(F)c32)cc1C(F)F` [Example I2], the IC50 against PI3K alpha stood at 0.308 µM; at PI3K delta, 0.005 µM.
Take `Cc1cc(N2CCOc3ccc(O[C@H]4CCN(C(=O)C5CCOCC5)C4)c(F)c32)cnc1S(C)(=O)=O` [Example I3]: the IC50 at PI3K alpha was 0.836 µM; against PI3K delta, 0.006 µM.
Take `COc1ncc(N2CC(C)Oc3ccc(O[C@H]4CCN(C(=O)C5CCOCC5)C4)cc32)cc1C#N` (stereo partly drawn) [Example O1, 2-Methoxy-5-{2-methyl-6-[(S)-1-(tetrahydro-pyran-4-carbonyl)-pyrrolidin-3-yloxy]-2,3-dihydro-benzo[1,4]oxazin-4-yl}-nicotinonitrile]: the IC50 came out at 4.57 µM against PI3K alpha and 0.053 µM against PI3K delta.
With `COc1ncc(N2CCOc3ccc(O[C@H]4CCN(C(=O)[C@H]5CCN(C(C)=O)C5)C4)cc32)cc1C#N` [J, 5-{6-[(S)-1-((S)-1-Acetyl-pyrrolidine-3-carbonyl)-pyrrolidin-3-yloxy]-2,3-dihydro-benzo[1,4]-oxazin-4-yl}-2-methoxy-nicotinonitrile], the IC50 turned out to be 0.998 µM against PI3K alpha and 0.065 µM against PI3K delta.
Turning to `COc1ncc(N2CCOc3ccc(O[C@H]4CCN(C(=O)[C@@H]5CCN(C(C)=O)C5)C4)cc32)cc1C#N` [K, 5-{6-[(S)-1-((R)-1-Acetyl-pyrrolidine-3-carbonyl)-pyrrolidin-3-yloxy]-2,3-dihydro-benzo[1,4]oxazin-4-yl}-2-methoxy-nicotinonitrile], the results for the IC50 at PI3K alpha and at PI3K delta were 0.393 µM and under 0.003 µM, respectively.
On to `COc1ncc(N2CCOc3ccc(O[C@H]4CCN(C(=O)[C@@H]5CCN(C)C5)C4)cc32)cc1C#N` [L, 2-Methoxy-5-{6-[(S)-1-((R)-1-methyl-pyrrolidine-3-carbonyl)-pyrrolidin-3-yloxy]-2,3-dihydro-benzo[1,4]oxazin-4-yl}-nicotinonitrile], for which the 50% inhibitory concentration (IC50) is 0.538 µM on PI3K alpha and 0.013 µM on PI3K delta.
For the compound `Cc1cc(N2CCOc3ccc(O[C@H]4CCN(c5ccccn5)C4)cc32)cnc1S(C)(=O)=O` [M, 4-(6-Methanesulfonyl-5-methyl-pyridin-3-yl)-6-((S)-1-pyridin-2-yl-pyrrolidin-3-yloxy)-3,4-dihydro-2H-benzo[1,4]oxazine], the half-inhibitory concentration (IC50) on PI3K alpha is 0.304 µM; against PI3K delta, 0.006 µM.
As for `Cc1cc(N2CCOc3ccc(O[C@H]4CCN(c5ncccn5)C4)cc32)cnc1S(C)(=O)=O` [N, 4-(6-Methanesulfonyl-5-methyl-pyridin-3-yl)-6-((S)-1-pyrimidin-2-yl-pyrrolidin-3-yloxy)-3,4-dihydro-2H-benzo[1,4]oxazine], the IC50 against PI3K alpha is 0.838 µM; at PI3K delta, 0.012 µM.
Consider `COc1ncc(N2CCOc3ccc(O[C@H]4CCN(CC5CCN(C)CC5)C4)cc32)cc1C#N` [P, 2-Methoxy-5-{6-[(S)-1-(1-methyl-piperidin-4-ylmethyl)-pyrrolidin-3-yloxy]-2,3-dihydro-benzo[1,4]oxazin-4-yl}-nicotinonitrile], for which the figures for the IC50 at PI3K alpha and against PI3K delta were 0.954 µM and 0.072 µM, respectively.
Take `COc1ncc(N2CCOc3ccc(O[C@H]4CCN(C(=O)[C@H]5CC[C@H](O)CC5)C4)cc32)cc1C#N` [R, 5-{6-[(S)-1-(4-Hydroxy-cyclohexanecarbonyl)-pyrrolidin-3-yloxy]-2,3-dihydro-benzo[1,4]oxazin-4-yl}-2-methoxy-nicotinonitrile]: the IC50 is 0.602 µM against PI3K alpha and 0.011 µM at PI3K delta.
Consider `COc1ncc(N2CCOc3ccc(O[C@H]4CCN(C(=O)Cc5ccncc5)C4)cc32)cc1C#N` [S, 2-Methoxy-5-{6-[(S)-1-(2-pyridin-4-yl-acetyl)-pyrrolidin-3-yloxy]-2,3-dihydro-benzo[1,4]oxazin-4-yl}-nicotinonitrile], for which the values for the IC50 against PI3K alpha and against PI3K delta were 0.612 µM and 0.036 µM, respectively.
Take `COc1ncc(N2CCOc3ccc(O[C@H]4CCN(C(=O)c5cn(C)cn5)C4)cc32)cc1N` [T, {(S)-3-[4-(5-Amino-6-methoxy-pyridin-3-yl)-3,4-dihydro-2H-benzo[1,4]oxazin-6-yloxy]-pyrrolidin-1-yl}-(1-methyl-1H-imidazol-4-yl)-methanone]: the IC50 against PI3K alpha is 1.88 µM; at PI3K delta, 0.076 µM.
Take `COc1ncc(N2CCOc3ccc(O[C@H]4CCN(C(=O)c5cn(C)cn5)C4)cc32)cc1NS(C)(=O)=O` [U, N-(2-Methoxy-5-{6-[(S)-1-(1-methyl-1H-imidazole-4-carbonyl)-pyrrolidin-3-yloxy]-2,3-dihydro-benzo[1,4]oxazin-4-yl}-pyridin-3-yl)-methanesulfonamide]: the IC50 against PI3K alpha is 0.192 µM; against PI3K delta it was 0.015 µM.
Taken in the same sequence, the figures for `COc1ncc(N2CCOc3ccc(O[C@H]4CCN(C(=O)C5CCS(=O)(=O)CC5)C4)c(C)c32)cc1C` [V, (1,1-Dioxo-hexahydro-1lambda*6*-thiopyran-4-yl)-{(S)-3-[4-(6-methoxy-5-methyl-pyridin-3-yl)-5-methyl-3,4-dihydro-2H-benzo[1,4]oxazin-6-yloxy]-pyrrolidin-1-yl}-methanone] were 3.2 µM and 0.079 µM.
As to `Cc1cc(N2CCOc3ccc(O[C@H]4CCN(C(=O)C5CCOCC5)C4)c(C)c32)cnc1S(C)(=O)=O` [W, {(S)-3-[4-(6-Methanesulfonyl-5-methyl-pyridin-3-yl)-5-methyl-3,4-dihydro-2H-benzo[1,4]oxazin-6-yloxy]-pyrrolidin-1-yl}-(tetrahydro-pyran-4-yl)-methanone], the IC50 at PI3K alpha came out at 2.98 µM; on PI3K delta, 0.056 µM.
The matching figures for `COc1ncc(N2CCOc3ccc(O[C@H]4CCN(C(=O)C5CCS(=O)(=O)CC5)C4)c(C)c32)cc1C(F)F` [X, {(S)-3-[4-(5-Difluoromethyl-6-methoxy-pyridin-3-yl)-5-methyl-3,4-dihydro-2H-benzo[1,4]oxazin-6-yloxy]-pyrrolidin-1-yl}-(1,1-dioxo-hexahydro-1lambda*6*-thiopyran-4-yl)-methanone]: 3.58 µM and 0.061 µM.
